Test results reported in US20100028427A1, “IMMEDIATE RELEASE FORMULATIONS OF 1-AMINOCYCLOHEXANE COMPOUNDS, MEMANTINE AND NERAMEXANE” (Forest Laboratories, Inc., priority 2004, published 2010).

Test: Solubility and permeability (Biopharmaceutical Classification System)
Assay type: physicochemical

solubility: highly soluble
SMILES: CC12CC3CC(C)(C1)CC(N)(C3)C2.Cl [Memantine HCl, 1-amino-3,5-dimethyladamantane hydrochloride]
